Laboratory results published in the SangsterLogP compilation.

Assay: method code SF-AS, from DOI: 10.1021/jm00089a008, PMID: 1317921
Details: pH 7.4

First: CC(C)N(/C=N/c1ccn([C@H]2C[C@H](F)[C@@H](CO)O2)c(=O)n1)C(C)C
Second: CC(C)N(/C=N/c1ccn([C@H]2CC[C@@H](CO)O2)c(=O)n1)C(C)C
The logD of the first is higher: 1.14 for the first, 0.72 for the second.

With `O=c1nc(/N=C/N2CCOCC2)ccn1C1CC(F)C(CO)O1` (stereo not drawn) the logD was -0.68.
